The text below walks through data of ChEMBL document CHEMBL6134838, “Discovery of c-Kit as a New Therapeutic Target in LPS-Induced Acute Lung Injury through Novel Phenylamide Derivative D9” (J Med Chem, 2025).

System in the first series: not listed separately
As to the kind of experiment: Cytotoxicity against mouse J774.A1 cells assessed as survival rate at 10 uM measured for 48 hrs by MTT assay relative to control.
Details: not given
A general note: Tetrazolium assays rely on reduction of a dye to a coloured formazan, in cell work by metabolically active cells.
What is called viability is a read-out of living cells in per cent, often relative to untreated cells. For `O=C(NCCCN1CCOCC1)c1cc(Oc2ccc(NC(=O)c3cn(-c4ccc(Br)cc4F)c4ccccc4c3=O)cc2)ccn1`, the viability at 48 h, 10 µM amounted to 92.2%.
Same read-out and setting: the same measure for `O=C(NCCCN1CCOCC1)c1cc(Oc2ccc(NC(=O)c3cn(-c4ccccc4)c4ccccc4c3=O)cc2)ccn1`: 82.7%; for `O=C(NCCc1cccs1)c1cc(Oc2ccc(NC(=O)c3cn(-c4ccc(Br)cc4)c4ccccc4c3=O)cc2)ccn1`: 84.4%; for `O=C(NCCCN1CCOCC1)c1cc(Oc2ccc(NC(=O)c3cn(-c4ccc(F)c(Cl)c4)c4ccccc4c3=O)cc2F)ccn1`: more than 100%.
In the case of `O=C(NCCc1cccs1)c1cc(Oc2ccc(NC(=O)c3cn(-c4ccc(Br)cc4)c4ccccc4c3=O)cc2F)ccn1`, the viability at 48 h, 10 µM amounted to 84.3%.
Turning to `O=C(NCCc1cccs1)c1cc(Oc2ccc(NC(=O)c3cn(-c4ccccc4)c4ccccc4c3=O)cc2)ccn1`, the viability at 48 h, 10 µM was 72%.
The same measure, in the same setting: then `O=C(NCCCN1CCOCC1)c1cc(Oc2ccc(NC(=O)c3cn(-c4ccc(Cl)cc4)c4ccccc4c3=O)cc2F)ccn1`, with 77.8%; and `COc1ccc(-n2cc(C(=O)Nc3ccc(Oc4ccnc(C(=O)NCCc5cccs5)c4)cc3)c(=O)c3ccccc32)cc1`, with 88.3%.
For `O=C(NCCc1cccs1)c1cc(Oc2ccc(NC(=O)c3cn(-c4ccc(Br)cc4F)c4ccccc4c3=O)cc2F)ccn1`, the viability at 48 h, 10 µM worked out at 97.1%.
For the molecule `COc1ccc(-n2cc(C(=O)Nc3ccc(Oc4ccnc(C(=O)NCCCN5CCOCC5)c4)cc3)c(=O)c3ccccc32)cc1`, the viability at 48 h, 10 µM was 87%.
The same measure, in the same setting: the same measure for `O=C(NCCCN1CCOCC1)c1cc(Oc2ccc(NC(=O)c3cn(-c4ccc(Br)cc4)c4ccccc4c3=O)cc2)ccn1`: more than 100%; for `O=C(NCCCN1CCOCC1)c1cc(Oc2ccc(NC(=O)c3cn(-c4ccc(Br)cc4)c4ccccc4c3=O)cc2F)ccn1`: 91.3%; for `O=C(NCCc1cccs1)c1cc(Oc2ccc(NC(=O)c3cn(-c4ccc(Cl)cc4)c4ccccc4c3=O)cc2)ccn1`: 86.2%.
For the molecule `O=C(NCCc1cccs1)c1cc(Oc2ccc(NC(=O)c3cn(-c4ccccc4)c4ccccc4c3=O)cc2F)ccn1`, the viability at 48 h, 10 µM came out at 99.8%.
As to `O=C(NCCCN1CCOCC1)c1cc(Oc2ccc(NC(=O)c3cn(-c4ccccc4)c4ccccc4c3=O)cc2F)ccn1`, the viability at 48 h, 10 µM came to 83.2%.
Still for that read-out and setting: the same measure for `O=C(NCCc1cccs1)c1cc(Oc2ccc(NC(=O)c3cn(-c4ccc(Br)cc4F)c4ccccc4c3=O)cc2)ccn1`: 92.8%; for `COc1ccc(-n2cc(C(=O)Nc3ccc(Oc4ccnc(C(=O)NCCc5cccs5)c4)c(F)c3)c(=O)c3ccccc32)cc1`: 85.3%; for `O=C(NCCc1cccs1)c1cc(Oc2ccc(NC(=O)c3cn(-c4ccc(F)c(Cl)c4)c4ccccc4c3=O)cc2)ccn1`: more than 100%.
Still for that read-out and setting: the same measure for `O=C(NCCCN1CCOCC1)c1cc(Oc2ccc(NC(=O)c3cn(-c4ccc(F)c(Cl)c4)c4ccccc4c3=O)cc2)ccn1`: more than 100%.
The same measure, in the same setting: the same measure for `O=C(NCCc1cccs1)c1cc(Oc2ccc(NC(=O)c3cn(-c4ccc(Cl)cc4)c4ccccc4c3=O)cc2F)ccn1`: 7.46%.
`O=C(NCCCN1CCOCC1)c1cc(Oc2ccc(NC(=O)c3cn(-c4ccc(F)cc4)c4ccccc4c3=O)cc2F)ccn1`: the viability at 48 h, 10 µM worked out at 94.1%.
For `O=C(NCCCN1CCOCC1)c1cc(Oc2ccc(NC(=O)c3cn(-c4ccc(Cl)cc4)c4ccccc4c3=O)cc2)ccn1`, the viability at 48 h, 10 µM is more than 100%.
`O=C(NCCc1cccs1)c1cc(Oc2ccc(NC(=O)c3cn(-c4ccc(F)cc4)c4ccccc4c3=O)cc2F)ccn1`: the viability at 48 h, 10 µM is more than 100%.
Same read-out and setting: the same measure for `COc1ccc(-n2cc(C(=O)Nc3ccc(Oc4ccnc(C(=O)NCCCN5CCOCC5)c4)c(F)c3)c(=O)c3ccccc32)cc1`: 22.9%; for `O=C(NCCCN1CCOCC1)c1cc(Oc2ccc(NC(=O)c3cn(-c4ccc(Br)cc4F)c4ccccc4c3=O)cc2F)ccn1`: 90.7%.
In the case of `O=C(NCCc1cccs1)c1cc(Oc2ccc(NC(=O)c3cn(-c4ccc(F)c(Cl)c4)c4ccccc4c3=O)cc2F)ccn1`, the viability at 48 h, 10 µM came to 77.7%.
As to `O=C(NCCCN1CCOCC1)c1cc(Oc2ccc(NC(=O)c3cn(-c4ccc(F)cc4)c4ccccc4c3=O)cc2)ccn1`, the viability at 48 h, 10 µM was found to be 87.1%.
Same read-out and setting: the same measure for `COc1cc(/C=C/C(=O)CC(=O)/C=C/c2ccc(O)c(OC)c2)ccc1O` [CURCUMIN]: 94.9%.

For a further series, the system named is J774.A1. As to the kind of experiment: cells. Conditions: Mus musculus, J774.A1, 24 h.
Description: Antiinflammatory activity against mouse J774.A1 cells assessed as inhibition of LPS-stimulated IL-6 release measured for 24 hrs by ELISA method
A word on the IC50: it is the concentration that inhibits the measured activity by half. As for `O=C(NCCCN1CCOCC1)c1cc(Oc2ccc(NC(=O)c3cn(-c4ccc(Br)cc4)c4ccccc4c3=O)cc2F)ccn1`, half-maximal inhibition (IC50) required 6.16 µM.
